32 molecules from patent publication US20130158035A1, “[…] COMPOUNDS” (Brigham Young University, priority 2010, published 2013) can be followed below.

The first test concerns MDCK cells. Briefly: HGF-induced epithelial-mesenchymal transition / migration of MDCK cells on transwell filters (crystal violet densitometry). Format: cell-based. To be noted: Canis lupus familiaris, MDCK, 24 h, Table 3, 10 μM compound, then HGF, percentage like untreated controls (unstimulated cells = maximal effect, HGF only = nil). The protocol: MDCK cells were seeded at confluency into the wells of a transwell filter in DMEM with 10% fetal bovine serum. Cells were cultured for 24 hours. Test compounds, dissolved in DMSO, were added to each test well to a 10 μM final concentration, and then hepatocyte growth factor (HGF) was then added. The MDCK cells were cultured for 24 hours. Concurrently, controls treated with and without HGF and with no test compounds were also prepared.
After post-HGF addition culturing, transwell filters were prepared by repeated washing using ice cold PBS. The cells were then fixed with paraformaldehyde (3.7%) on ice for 15 minutes to the filters. After fixation, the transwell filters were washed repeatedly with PBS followed by staining with crystal violet for 15 minutes. The transwell filters were washed again with distilled water.
The upper surface of the transwell filters were swabbed using a cotton-tipped probe. The filters were photographed using a gel documentation system. Densitometry measurements were made on the test samples and compared with control samples.
Usually inhibition stands for the share of the control response that was lost under treatment. Lower therefore signals little suppression. Regarding `Cc1ccc(/C=N/c2ccccc2C(N)=O)s1` [Compound A-10], the inhibition at 10 µM stood at 91.8%.

Regarding `NC(=O)c1ccccc1/N=C/c1cccc(O)c1` [Compound A-8], the inhibition at 10 µM worked out at 19.7%.

`COc1cc(CNc2cc(C(=O)O)ccc2C)cc(Br)c1OC` [Compound A-22] returned an inhibition at 10 µM of 33.1%.

In turn, `NC(=O)c1ccccc1/N=C/c1ccccc1Cl` [Compound A-2] showed an inhibition at 10 µM of 75.7%.

Staying with this test, now noted: Canis lupus familiaris, MDCK, 24 h, Table 4, 10 μM compound, then HGF, percentage like untreated controls (unstimulated cells = maximal effect, HGF only = nil).
In turn, `Cc1nc(NC(=O)COc2ccc([N+](=O)[O-])cc2)ccc1I` [Compound B-2] came in with an inhibition at 10 µM of 96.9%.

As to `CCOc1ccc(C(=O)Nc2cccc(C)n2)cc1[N+](=O)[O-]` [Compound B-9], the inhibition at 10 µM is 34.6%.

Consider `CCOc1ccc(C(=O)Nc2ccc(I)cn2)cc1[N+](=O)[O-]` [Compound B-10], for which the inhibition at 10 µM was 69.9%.

Take `Cc1nc(NC(=O)c2cccc([N+](=O)[O-])c2)ccc1Br` [Compound B-6]: the inhibition at 10 µM amounted to 88.6%.

The test is the same for the next values; noted with them: Canis lupus familiaris, MDCK, 24 h, Table 5, 10 μM compound, then HGF, percentage like untreated controls (unstimulated cells = maximal effect, HGF only = nil).
In turn, `O=C(Nc1cccc(C(=O)N2CCOCC2)c1)c1ccc(-c2ccccc2)cc1` [Compound B-21] showed an inhibition at 10 µM of 27.2%.

In turn, `O=C(Nc1cccc(Cl)c1)c1ccc(-c2ccccc2)cc1` [Compound B-19] yielded an inhibition at 10 µM of 93.2%.

The molecule `NC(=O)c1cccc(NC(=O)c2ccc(-c3ccccc3)cc2)c1` [Compound B-20] came in with an inhibition at 10 µM of 20.6%.

`O=[N+]([O-])c1cccc(S(=O)(=O)Nc2ccc(Cl)c(Cl)c2)c1` [Compound B-35]: at 10 µM the inhibition was 71.1%.

`CCN1CCN(c2ccc(NC(=O)c3cc(OC)c(OC)c(OC)c3)cc2Cl)CC1` [Compound B-26]: the inhibition at 10 µM is greater than 5%.

For the molecule `Cc1cc(C)c(NS(=O)(=O)c2cccc([N+](=O)[O-])c2)c(C)c1` [Compound B-38], the inhibition at 10 µM stood at 100%.

The same test, now with this note: Canis lupus familiaris, MDCK, 24 h, Table 6, 10 μM compound, then HGF, percentage like untreated controls (unstimulated cells = maximal effect, HGF only = nil).
With `CCOC(=O)c1[nH]c2c(c1C)C(=O)CC(c1ccco1)C2` (centres unmarked) [Compound C-4], 10 µM produced 62.2% inhibition.

In turn, `COC(=O)c1[nH]c2c(c1C)C(=O)CC(c1ccc(OC)cc1)C2` (centres unmarked) [Compound C-16] gave an inhibition at 10 µM of less than 5%.

As to `CCOC(=O)c1[nH]c2c(c1C)C(=O)CC(c1cccc(OC)c1)C2` (centres unmarked) [Compound C-1], the inhibition at 10 µM worked out at 96%.

Staying with this test, now noted: Table 1; 10 μM compound, then HGF, 24 hours; percentage like untreated controls (unstimulated cells = maximal effect, HGF only = nil).
On to `O=C1CC(c2cccc3ccccc23)c2cc3c(cc2N1)OCCO3` (centres unmarked) [Compound 7], for which the “Assay Value” turned out to be 17.1%.

As to `CCOc1c(Br)cc(C2CC(=O)Nc3cc4c(cc32)OCCO4)cc1OC` (centres unmarked) [Compound 8], the “Assay Value” was determined as 48.8%.

As for `O=C1CC(c2cccc(O)c2)c2cc3c(cc2N1)OCCO3` (centres unmarked) [Compound 19], the “Assay Value” is listed as 7.8%.

With `O=C1CC(c2ccccc2F)c2cc3c(cc2N1)OCCO3` (centres unmarked) [Compound 12], the “Assay Value” is given as 23.4%.

In the case of `O=C1CC(c2ccc(F)c(Br)c2)c2cc3c(cc2N1)OCCO3` (centres unmarked) [Compound 21], the “Assay Value” came out at 11.2%.

Still in this test, the particulars now being: Table 2; 10 μM compound, then HGF, 24 hours; percentage like untreated controls (unstimulated cells = maximal effect, HGF only = nil).
`COc1cccc(C2CC(=O)Nc3cc4c(cc32)CCC4)c1` (centres unmarked) [Compound 99]: the “Assay Value” is given as less than 5%.

`CSc1ccc(C2CC(=O)Nc3cc4c(cc32)OCCO4)cc1` (centres unmarked) [Compound 68]: the “Assay Value” was less than 5%.

Consider `O=C1CC(c2ccccc2OCc2ccccc2)c2cc3c(cc2N1)OCCO3` (centres unmarked) [Compound 56], for which the “Assay Value” is reported as less than 5%.

For the molecule `O=C1CC(c2ccc(F)cc2F)c2cc3c(cc2N1)OCO3` (centres unmarked) [Compound 82], the “Assay Value” is less than 5%.

Regarding `COc1cc2c(cc1OC)C(c1cccc(OCc3ccccc3)c1)CC(=O)N2` (centres unmarked) [Compound 60], the “Assay Value” is recorded as less than 5%.

`CCOc1ccc(C2CC(=O)Nc3cc4c(cc32)OCCO4)cc1OC` (centres unmarked) [Compound 63]: the “Assay Value” is less than 5%.

Turning to `Cc1ccc(C2CC(=O)Nc3cc4c(cc32)OCCO4)cc1` (centres unmarked) [Compound 54], the “Assay Value” is on record as less than 5%.

As for `O=C1CC(c2cc3c(cc2[N+](=O)[O-])OCO3)c2cc3c(cc2N1)CCC3` (centres unmarked) [Compound 91], the “Assay Value” is listed as less than 5%.

Take `COc1cc2c(cc1OC)C(c1cccc(C)c1)CC(=O)N2` (centres unmarked) [Compound 64]: the “Assay Value” was less than 5%.

As to `O=C1CC(c2ccccc2Cl)c2cc3c(cc2N1)OCCO3` (centres unmarked) [Compound 37], the “Assay Value” is listed as less than 5%.
